Experimental data published in patent US20220409617A1, “Drug Formulations and Methods of Treatment for Metabolic Disorders” (The Regents of the University of California, priority 2019, published 2022).

How the values were obtained:
hepatic mitochondria = assay: Hepatic mitochondrial morphology (NADH/NADPH autofluorescence) after acute treatment; format: in vivo, mouse
Description: To determine whether sphingolipid-like compound 893 also protects from ceramide-induced mitochondrial fragmentation in vivo, a cohort of mice with diet-induced obesity was analyzed. Male, C57BL/6J mice were fed a 45% kcal from fat rodent diet (HFD) or a standard chow diet (10% kcal from fat) for 22-26 weeks. Mitochondrial morphology was compared in freshly resected livers from vehicle- or sphingolipid-like compound 893-treated mice using NADH/NADPH autofluorescence and confocal microscopy. When evaluating mitochondrial morphology, light microscopy has two, significant advantages over electron microscopy: 1) the 3D architecture of the mitochondrial network is readily apparent, and 2) quantitative measurements of mitochondrial shape can be made in a large number of cells in an automated and unbiased manner using image analysis software (FIG. 11). […]
MEFs were washed twice with PBS and fixed with 4% paraformaldehyde for 10 min at RT. […] NADH/NADPH autofluorescence was detected with 740 nm excitation and 450±50 nm detectors using a Mai Tai two-photon laser. Fluorescence microscopy was performed on a Zeiss LSM 780 confocal using a 63× oil objective with a […] numerical aperture (NA) or using a Nikon TE2000-S inverted epifluorescence microscope with a 100× oil objective (1.3 NA) and a Photometrics CoolSNAP ES2 monochrome CCD camera. […]

GLUT1 = conditions: cited from earlier work
leptin = assay: Serum leptin ELISA in HFD-fed mice; format: in vivo, mouse
Description: Further assessment was performed to determine the level of leptin circulating in HFD-fed mice treated with sphingolipid-like compound 893. Mice were fed a HFD for 4 weeks and randomly distributed into two groups with the same mean weight. Mice were gavaged with water (n=7) or 120 mg/kg 893 (n=8) at ZT8.5. Blood was collected from the saphenous vein between ZT15-18 in pairs of treated vs. untreated animals and leptin levels were measured in serum using ELISA (CrystalChem, cat #90030).

Compound: CCCCCCCCc1ccc([C@H]2CCN[C@@H]2CO)cc1.Cl [compound 893]
- Hepatic mitochondrial morphology (aspect ratio, roundness), HFD-fed mice (hepatic mitochondria; single oral dose 120 mg/kg at ZT8.5, HFD-fed, treatment-naive mice): increasing their tubularity (increased aspect ratio) and reducing their roundness to match controls fed standard chow
- Hepatic mitochondrial morphology, lean SD-fed mice (hepatic mitochondria; single oral dose 120 mg/kg, mice consuming the SD): did not significantly alter hepatic mitochondrial morphology
- Effect on GLUT1 (GLUT1): down-regulate GLUT1
- Leptin production by adipocytes (leptin; in vivo): reduced leptin production by adipocytes in vivo
- Circulating leptin levels (serum) (leptin; mice on HFD 4 weeks, 120 mg/kg at ZT8.5, blood at ZT15-18): lowered levels of circulating leptin
